# Patent publication US20200024234A1, “RADIOPHARMACEUTICAL COMPLEXES” (LUMIPHORE, INC., priority 2009, published 2020)
# {NH2C3} = aminopropyl group attached via phosphodiester linkage
# Experiments:
# [1] = in vivo; cited from earlier work
# [2] = cited from earlier work
# [3] = thorium(IV) complexes; cited from earlier work
# [4] = Gel electrophoresis mobility shift assay of complexation with metal cations
# Text: LUMI4® is an isophthalamide class macrocyclic chelate that selectively coordinates to metal cations including those of the lanthanide series. For use in certain applications, such as acting as a bifunctional chelating agent to attach a radioisotope to a site-directing molecule, it is necessary that the chelate be able to coordinate to the metal ion of interest in a kinetically facile and thermodynamically stable manner. […] In this experiment, a conjugate of LUMI4® with a small (18 base length) DNA oligomer was treated with a solution containing a metal cation. The electrophoretic mobility of the conjugate on a polyacrylamide gel was then compared with that of the conjugate which was not exposed to the solution of metal cation. […] To provide an additional comparison, the gel electrophoretic mobility of the DNA oligomer that was not conjugated to LUMI4® was measured with and without exposure to the metal cation solution under identical conditions.
# In particular, a solution of DNA oligomer (6 μL, 5 μM, all concentrations final) was mixed with a solution of metal cation (2 μL, 250 μM) or an equal volume of water. The solution was incubated at 55° C. for five minutes, whereupon the solutions were allowed to cool to ambient temperature and a solution of 50% formamide (7 μL) was added. The resulting solution was again heated to 55° C. for five minutes and then cooled to −20° C. briefly. […]
molecule,measurement,setting,value
"O=C(NCCCN(CCCCN(CCCNC(=O)c1cccc(=O)n1O)C(=O)c1cccc(=O)n1O)C(=O)c1cccc(=O)n1O)c1cccc(=O)n1O [3,4,3-LI(1,2-HOPO)]",toxicity at effective dosage,[1],acceptably low toxicity
same,effective dosage,[2]; in vivo,0.01 to 0.1 µmol/kg
same,"removal of Th(IV), Pu(IV) or Am(III) from the wound site and body compared with CaNa3-DTPA",[2]; injected ip or infiltrated into a wound,much more effective
same,oral activity,[2]; oral,useful oral activity
same,removal of injected or inhaled Pu(IV) and Am(III) compared with CaNa3-DTPA,"[2]; rodents, injected, infused or oral",removes more
O=C(O)CN(CCN(CC(=O)O)CC(=O)O)CCN(CC(=O)O)CC(=O)O [DTPA],Log K1,[3],30.34
NC(=O)CCCC(=O)NCCCCC1CN2CCNC(=O)c3cccc(c3O)C(=O)NCCN(CCNC(=O)c3cccc(c3O)C(=O)N1)CCN1CCNC(=O)c3cccc(c3O)C(=O)NCCN(CCNC(=O)c3cccc(c3O)C(=O)NCC1)CC2 (centres unmarked) [LUMI4®],stability of metal complex upon electrophoresis in the presence of the competing chelate EDTA,[4]; LUMI4 conjugated to a DNA oligomer,forms a stable complex
"unmodified oligonucleotide: DNA 18-base oligonucleotide 5′-AAGGTCATCCATGACAAC-3′ (SEQ ID NO: 1) with 5′-aminopropyl group (DNA, 5' {NH2C3}, backbone not given here)",gel mobility following treatment with the metal cation solution,"[4]; 20% polyacrylamide gel, 8 M urea, running buffer with 2 mM EDTA",unaffected
